Consider two molecules from the NIST ThermoML archive (doi:10.1016/j.tca.2017.10.021).

For this series the following is noted: Crystal, Transpiration method.

One may read the vapor or sublimation pressure as the equilibrium pressure above the liquid or solid.

Molecules are shown by their SMILES. Numbers after ± are expanded uncertainties.

`Cl.N` [ammonium chloride (NH4Cl)]: the “vapor or sublimation pressure” value by setting is: (463 K) 0.4871 ± 0.02 kPa; (473 K) 0.7748 ± 0.031 kPa; (483 K) 1.14 ± 0.045 kPa; (493 K) 1.683 ± 0.074 kPa; (503 K) 2.758 ± 0.12 kPa; (513 K) 3.639 ± 0.18 kPa. The “vapor or sublimation pressure” value (543 K) is reported as 11.54 ± 0.52 kPa.
Take `CN.Cl` [methylammonium chloride]: the “vapor or sublimation pressure” value is reported as 0.0044 ± 0.0003 kPa (393 K); 0.0085 ± 0.0004 kPa (403 K); 0.0171 ± 0.0008 kPa (413 K); 0.0307 ± 0.0015 kPa (423 K); 0.0643 ± 0.003 kPa (435.5 K); 0.1683 ± 0.0068 kPa (455 K). Besides, the “vapor or sublimation pressure” value reads like this: (463 K) 0.2868 ± 0.015 kPa; (473 K) 0.4424 ± 0.018 kPa; (483 K) 0.7211 ± 0.043 kPa; (493 K) 1.116 ± 0.057 kPa; (513 K) 2.499 ± 0.098 kPa.
